# Experimental data from patent publication US20060276412A1, “METHODS AND COMPOSITIONS FOR MANAGING PSYCHOTIC DISORDERS” (priority 2005, published 2006).
# Experiments:
# [1] = system: serotonin (5HT) in hypothalamus; assay: Brain microdialysis: serotonin in hypothalamus; format: in vivo, rats; conditions: 3 mg/kg olanzapine
# Text: (§1) 62 adult Sprague-Dawley male rats (Harland, Indianapolis) weighing 300-350 g were used in the following studies. The rats were quarantined for at least five days in group housing. Following the quarantine procedure, rats were maintained in individual cages. For surgical implantation with intracerebral guides, guides were inserted directly above either the hypothalamus (HT) (31 rats), or the medial prefrontal cortex (mPFC) (31 rats). Stereotaxic coordinates (Paxinos and Watson, 1986) provided below were used to position the guide cannulae and/or probes: Animals were anesthetiszed according using standard procedures. The head of each animal was shaved from the front of the eyes to the back of the skull. Shaved areas were disinfected, and the animals were placed in stereotaxic frame ear bars. The animal was aligned with the incisor bar. The animal's scalp was cut with a sharp #15 scalpel blade. If the bone began to bleed, bone wax was applied to the incision. Periosteal tissue was cleaned from the skull to the lateral ridges with a cotton swab, and clamps were used to pull the skin out of the way. The probe or guide was placed in the clamp, such that the angled outlet cannula of the microdialysis probe was angled towards the animal's tail. The target coordinates were calculated, and this point was marked on the skull. Two holes in opposing skull bones were drilled for bone anchor screws and thread screws. The dura was torn away with a sharp, pointed object. The guide cannulae were placed at the dorsal/ventral zero point. […] Using dental acrylic, the cannulae were cemented to the bone anchor screws. The cement was allowed to harden and the rodent was removed from the stereotaxic frame. The cranial and caudal aspects of the incision were sutured. The animals were allowed to recover for three to five days. Stylets in the guides were replaced with dialysis probes on the evening prior to study to allow for animal acclimation and to reestablish the integrity of the blood brain barrier. […] Rats were weighed pre-surgery, every 1-2 days post-surgery until time of microdialysis, and postmortem. Microdialysis probes used in the experiments described below were first soaked in standard Ringer's perfusion medium for 30 minutes. Inlet and outlet tubing was connected to each probe using flanged connectors. The outlet tubing was connected to a fraction collector, and the inlet was connected to and […] syringe drive. The probes were immersed in fresh Ringer's solution and flushed with Ringer's perfusion medium at a rate of 2 μl/min for 1 hour. The probe was then transferred to the intracerebral guide on the rat's skull. […] Water was added to obtain a final concentration of 0.3 mg/ml. […] Zonisamide was dissolved in DMSO. […] The final concentration of zonisamide was 7.5 mg/ml. The drug solution was maintained at 37° C. prior to injection. The rats were divided into ten test groups. Five animals were analyzed for each test group. The test groups were as follows: For the microdialysis experiments, perfusion consisted of 2 μl/min delivery of sterile standard Ringer's solution for intervals of 20 minutes. Final collection volumes were 40 μl. 30 μl samples were analyzed for each analyte: DA, NE, 5HT. 12 pre-dose samples and 12 post dose samples were collected every 20 minutes for a duration of 4 hours, both pre-dose and post-dose. Six samples from the pre-dose and post-dose collections were analyzed for norepinephrine. The remaining six samples from the pre-dose and post-dose collections were analyzed for both dopamine and serotonin. Samples were chilled to -80° C. immediately following collection. The samples were analyzed using liquid chromatography with electrochemical detection using conventional techniques. See, e.g., Huang, T., R. et al. (1994) New […] Microbore Columns for Liquid Chromatography. Current Separations 12(4): 191-195. […] Concentrations of each compound are expressed as % baseline.
# [2] = system: serotonin (5HT) in medial prefrontal cortex; assay: Brain microdialysis: serotonin in mPFC; format: in vivo, rats; conditions: 3 mg/kg olanzapine
# Text: as §1
# [3] = system: dopamine (DA) in hypothalamus; assay: Brain microdialysis: dopamine in hypothalamus; format: in vivo, rats; conditions: 3 mg/kg olanzapine
# Text: as §1
# [4] = system: dopamine (DA) in medial prefrontal cortex; assay: Brain microdialysis: dopamine in mPFC; format: in vivo, rats; conditions: 3 mg/kg olanzapine
# Text: as §1
# [5] = system: norepinephrine (NE) in hypothalamus; assay: Brain microdialysis: norepinephrine in hypothalamus; format: in vivo, rats; conditions: 3 mg/kg olanzapine
# Text: as §1
# [6] = system: norepinephrine (NE) in medial prefrontal cortex; assay: Brain microdialysis: norepinephrine in mPFC; format: in vivo, rats; conditions: 3 mg/kg olanzapine
# Text: as §1
# [7] = system: dopamine receptors; conditions: cited from earlier work
# [8] = system: serotonin receptors; conditions: cited from earlier work
# [9] = system: alpha-adrenergic receptors; conditions: cited from earlier work
# [10] = system: histaminic receptors; conditions: cited from earlier work
# [11] = cited from earlier work
smiles,measurement,setting,value
Cc1cc2c(s1)Nc1ccccc1N=C2N1CCN(C)CC1 [olanzapine],Serotonin concentrations in hypothalamus,[1]; 3 HOUR AVE,89.0647 % baseline
same,Serotonin concentrations in hypothalamus,[1]; 40 min post dose,89.816 % baseline
same,Serotonin concentrations in hypothalamus,[1]; 80 min post dose,86.183 % baseline
same,Serotonin concentrations in hypothalamus,[1]; 120 min post dose,92.131 % baseline
same,Serotonin concentrations in hypothalamus,[1]; 160 min post dose,80.560 % baseline
same,Serotonin concentrations in hypothalamus,[1]; 200 min post dose,98.707 % baseline
same,Serotonin concentrations in hypothalamus,[1]; 240 min post dose,88.921 % baseline
same,Serotonin concentrations in hypothalamus,[1]; -20 min pre dose,107.440 % baseline
same,Serotonin concentrations in hypothalamus,[1]; -60 min pre dose,98.601 % baseline
same,Serotonin concentrations in hypothalamus,[1]; -100 min pre dose,93.959 % baseline
same,Serotonin concentrations in mPFC,[2]; 3 HOUR AVE,88.1078 % baseline
same,Serotonin concentrations in mPFC,[2]; 40 min post dose,115.609 % baseline
same,Serotonin concentrations in mPFC,[2]; 80 min post dose,101.724 % baseline
same,Serotonin concentrations in mPFC,[2]; 120 min post dose,88.189 % baseline
same,Serotonin concentrations in mPFC,[2]; 160 min post dose,92.085 % baseline
same,Serotonin concentrations in mPFC,[2]; 200 min post dose,119.171 % baseline
same,Serotonin concentrations in mPFC,[2]; 240 min post dose,83.828 % baseline
same,Serotonin concentrations in mPFC,[2]; -20 min pre dose,98.453 % baseline
same,Serotonin concentrations in mPFC,[2]; -60 min pre dose,100.982 % baseline
same,Serotonin concentrations in mPFC,[2]; -100 min pre dose,100.565 % baseline
same,Dopamine concentrations in hypothalamus,[3]; 3 HOUR AVE,125.98 % baseline
same,Dopamine concentrations in hypothalamus,[3]; 40 min post dose,156.507 % baseline
same,Dopamine concentrations in hypothalamus,[3]; 80 min post dose,110.363 % baseline
same,Dopamine concentrations in hypothalamus,[3]; 120 min post dose,183.338 % baseline
same,Dopamine concentrations in hypothalamus,[3]; 160 min post dose,89.032 % baseline
same,Dopamine concentrations in hypothalamus,[3]; 200 min post dose,113.293 % baseline
same,Dopamine concentrations in hypothalamus,[3]; 240 min post dose,95.959 % baseline
same,Dopamine concentrations in hypothalamus,[3]; -20 min pre dose,99.830 % baseline
same,Dopamine concentrations in hypothalamus,[3]; -60 min pre dose,93.473 % baseline
same,Dopamine concentrations in hypothalamus,[3]; -100 min pre dose,106.697 % baseline
same,Dopamine concentrations in mPFC,[4]; 3 HOUR AVE,209.94 % baseline
same,Dopamine concentrations in mPFC,[4]; 40 min post dose,227.023 % baseline
same,Dopamine concentrations in mPFC,[4]; 80 min post dose,266.655 % baseline
same,Dopamine concentrations in mPFC,[4]; 120 min post dose,219.135 % baseline
same,Dopamine concentrations in mPFC,[4]; 160 min post dose,186.256 % baseline
same,Dopamine concentrations in mPFC,[4]; 200 min post dose,202.788 % baseline
same,Dopamine concentrations in mPFC,[4]; 240 min post dose,153.048 % baseline
same,Dopamine concentrations in mPFC,[4]; -20 min pre dose,105.509 % baseline
same,Dopamine concentrations in mPFC,[4]; -60 min pre dose,119.009 % baseline
same,Dopamine concentrations in mPFC,[4]; -100 min pre dose,75.482 % baseline
same,Norepinephrine concentrations in hypothalamus,[5]; 3 HOUR AVE,129.18 % baseline
same,Norepinephrine concentrations in hypothalamus,[5]; 20 min post dose,161.934 % baseline
same,Norepinephrine concentrations in hypothalamus,[5]; 60 min post dose,148.422 % baseline
same,Norepinephrine concentrations in hypothalamus,[5]; 100 min post dose,115.418 % baseline
same,Norepinephrine concentrations in hypothalamus,[5]; 140 min post dose,118.651 % baseline
same,Norepinephrine concentrations in hypothalamus,[5]; 180 min post dose,113.533 % baseline
same,Norepinephrine concentrations in hypothalamus,[5]; 220 min post dose,115.014 % baseline
same,Norepinephrine concentrations in hypothalamus,[5]; -40 min pre dose,105.631 % baseline
same,Norepinephrine concentrations in hypothalamus,[5]; -80 min pre dose,103.272 % baseline
same,Norepinephrine concentrations in hypothalamus,[5]; -120 min pre dose,91.097 % baseline
same,Norepinephrine concentrations in mPFC,[6]; 3 HOUR AVE,154.642 % baseline
same,Norepinephrine concentrations in mPFC,[6]; 20 min post dose,162.923 % baseline
same,Norepinephrine concentrations in mPFC,[6]; 60 min post dose,197.693 % baseline
same,Norepinephrine concentrations in mPFC,[6]; 100 min post dose,159.929 % baseline
same,Norepinephrine concentrations in mPFC,[6]; 140 min post dose,141.759 % baseline
same,Norepinephrine concentrations in mPFC,[6]; 180 min post dose,147.978 % baseline
same,Norepinephrine concentrations in mPFC,[6]; 220 min post dose,117.569 % baseline
same,Norepinephrine concentrations in mPFC,[6]; -40 min pre dose,98.000 % baseline
same,Norepinephrine concentrations in mPFC,[6]; -80 min pre dose,119.880 % baseline
same,Norepinephrine concentrations in mPFC,[6]; -120 min pre dose,82.120 % baseline
same,affinity for dopamine receptors,[7],high affinity
same,affinity for serotonin receptors,[8],high affinity
same,affinity for alpha-adrenergic receptors,[9],lower affinity
same,affinity for histaminic receptors,[10],lower affinity
same,patients with a weight gain of ≧7%,[11]; analysis of four studies of various durations,40%
same,time at which induced weight gain peaks,[11]; noticeable in the first month of treatment,about 9 months
